This is an account of results in US20240132519A1, “NRF2-ACTIVATING COMPOUND” (SENJU PHARMACEUTICAL CO., LTD., priority 2020, published 2024).

Data set [1] concerns the target binding between NRF2 and KEAP1 (Homo sapiens (Human), UniProt Q14145). Nature of the data set: Binding assay: inhibition of binding between NRF2 and KEAP1 by BRET (NanoLuc-NRF2 and KEAP1-HaloTag cell lysates). The conditions noted are these: Test Example 3; separated diastereomers; mean, N=2. Here is the method:
The inhibitory activity of each compound on the binding between NRF2 and KEAP1 was measured by bioluminescence resonance energy transfer (BRET) assay. A plasmid having human NRF2 (Original Clone ID: ha01449s1) sequence fused with NanoLuc (19 kDa, Promega) at the N-terminal was transduced into HCE-T cells (immortalized human corneal epithelial cells) using FuGENE HD (Promega). 48 hours after transduction, the cell lysate was collected and used as an NRF2-expressing cell lysate. A plasmid having human KEAP1 (Original Clone ID: cs00328) sequence fused with HaloTag (33 kDa, Promega) at the C-terminal was transduced into HCE-T cells using FuGENE HD (Promega). After 24 hours, HaloTag Nano BRET 618 Ligand (Promega) was added to the medium. The cell lysate cultured for 24 hours after the addition was used as a KEAP1-expressing cell lysate.
The NRF2-expressing cell lysate and the KEAP1-expressing cell lysate were adjusted so that the luminescence and fluorescence intensities per well were constant. Tables 1 and 2 show the formulation of each reaction solution.
Each test substance at a concentration 100 times higher than the test concentration was dissolved in dimethylsulfoxide for adjustment. 49 μL of KEAP1 solution was added to a 96-well polystyrene microplate (FALCON) to which 1 μL of each test substance solution was added, followed by incubation for 15 minutes. Then, 50 μL of NRF2 solution was added to the above solution, followed by incubation for 1 hour. To measure the binding between NRF2 and KEAP1, NanoBRET Nano-Glo Substrate (Promega) diluted with Opti-Mem (Thermo Fisher Scientific) was added, followed by shaking for 30 seconds. Then, luminescence and fluorescence were measured using the GloMax Discover System (Promega). A 495-nm short pass filter and a 600-nm long pass filter were respectively used to measure donor and acceptor emission values. A value obtained by dividing the acceptor emission value by the donor emission value was regarded as BRET value. A BRET value when the compound was not added, and a BRET value when the KEAP1 solution was not added were respectively used as binding rates of 100% and 0%, and the binding rate when the compound was added was calculated. Further, using this binding rate, the 50% binding inhibitory activity concentration (IC50) was calculated from the following formula. The test was performed at N=2.
IC50(M)=10^(LOG(A/B)×(50−C)/(D−C)+LOG(B)) • A: higher concentration out of 2 close concentrations across the inhibition rate of 50% • B: lower concentration out of 2 close concentrations across the inhibition rate of 50% • C: inhibition rate at B • D: inhibition rate at A
(§1) Compounds A1/A2, compounds B1/B2, compounds C1/C2, and compounds D1/D2 were used as test substances. Binding assay and reporter assay were performed as in Test Example 1-1 and Test Example 1-2.
In general terms: BRET reads energy transfer from a luciferase to a nearby fluorophore.

Another data set concerns NRF2. The data set is described as follows: Reporter assay: NRF2 activating action in HCE-T/ARE-Luc cells (ARE luciferase reporter gene assay). The conditions noted are these: Test Example 3; separated diastereomers; mean, N=3. It counts as cell-based, human. Here is the method: The NRF2 activating action of the compounds on cells was measured by a reporter gene assay. pGL4.37[luc2P/ARE/Hygro] (Promega) was introduced into HCE-T cells using FuGENE HD. Cells that acquired drug resistance as a result of transduction were screened by culture in the presence of 50 μg/mL hygromycin, and a clone strain, HCE-T/ARE-Luc cells, was established.
HCE-T/ARE-Luc cells were cultured using DMEM/F12 medium containing 10 ng/mL hEGF, 5 μg/mL insulin, 5% FBS, and 40 μg/mL gentamicin. As the assay medium, a medium with the same composition as that for the culture was prepared using phenol red-free DMEM/F12 medium.
HCE-T/ARE-Luc cells were seeded in a 96-well polystyrene microplate (FALCON) with 10000 cells per well. The cells were incubated in a CO2 incubator at 37° C. for 16 hours to allow for cell adhesion. The test substance was dissolved in dimethylsulfoxide to prepare a solution at a concentration 1000 times higher than the test concentration. The cells were treated with the test substance diluted 1000-fold with the assay medium and cultured for 24 hours. When measuring the activity of the reporter, the medium containing the test substance was removed, and then a new medium and a substrate of ONE-GloEX Luciferase Assay System (Promega) were added. The plate was shaken for 1 minute and then allowed to stand at ordinary temperature for 10 minutes, and luminescence was detected using the GloMax Discover System (Promega).
The test was performed at N=3, and the 50% activation concentration of each test substance was calculated by creating a calibration curve between two concentrations across the luminescence incensity of 50%.
as §1
(In general: Reporter assays use an easily measured gene product as a stand-in for the process of interest.)

In a further data set the test system is HCE-T cells. Nature of the data set: Cell viability test in HCE-T cells (Cell Counting Kit-8, 24 hours). The conditions noted are these: mean, N=3. It is filed as cell-based, human. Here is the method:
To confirm cell viability, HCE-T cells were seeded at 10000 cells per well in a 96-well polystyrene microplate (IWAKI). The cells were cultured in a CO2 incubator at 37° C. for 16 hours to allow the cells to adhere. The culture of the HCE-T cells was performed using DMEM/F12 medium containing 10 ng/mL hEGF, 5 μg/mL insulin, 5% FBS, and 40 μg/mL gentamicin.
Each test substance was dissolved in dimethyl sulfoxide to prepare a stock solution with a concentration that is 1000 times the test concentration. DMEM/F12 medium containing 40 μg/mL gentamicin was used as assay medium. The medium containing serum and growth factors was removed and replaced with assay medium in which each test substance was appropriately serially diluted, and the cell viability was measured after 24 hours. Cell Counting Kit-8 (Dojindo Laboratories) was added to each well in an amount that is 1/10 the amount of the medium. Color reaction was performed for 1 hour in a CO2 incubator, and absorbance at 450 nm was measured with a microplate reader (Corona Electric Co., Ltd.). […] The test was performed at N=3.
In general terms: Tetrazolium dyes change colour on reduction, which living cells bring about.

Marks after values point to notes of the source that are not given here.

binding between NRF2 and KEAP1, sequence (Q14145 whole entry, the tested form may be a part): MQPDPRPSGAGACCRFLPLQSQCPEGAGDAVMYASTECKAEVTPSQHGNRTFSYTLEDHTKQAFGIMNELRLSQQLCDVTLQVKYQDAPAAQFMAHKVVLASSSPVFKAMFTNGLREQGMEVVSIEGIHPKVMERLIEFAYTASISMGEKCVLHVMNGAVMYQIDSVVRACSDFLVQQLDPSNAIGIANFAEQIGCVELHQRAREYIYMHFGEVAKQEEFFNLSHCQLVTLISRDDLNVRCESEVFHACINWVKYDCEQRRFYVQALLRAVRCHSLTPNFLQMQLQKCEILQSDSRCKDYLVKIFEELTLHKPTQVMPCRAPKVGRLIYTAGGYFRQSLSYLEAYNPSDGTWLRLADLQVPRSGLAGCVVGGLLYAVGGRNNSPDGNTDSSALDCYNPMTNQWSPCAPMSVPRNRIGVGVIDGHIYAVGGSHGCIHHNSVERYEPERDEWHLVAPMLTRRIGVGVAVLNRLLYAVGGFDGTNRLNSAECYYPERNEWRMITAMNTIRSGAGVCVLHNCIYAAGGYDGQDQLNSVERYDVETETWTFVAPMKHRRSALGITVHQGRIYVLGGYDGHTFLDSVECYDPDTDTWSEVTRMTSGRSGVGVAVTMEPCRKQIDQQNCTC

On to `CC[C@@H]1CN(Cc2cc(C(c3cc(OC)c(C(C)=O)s3)[C@H](C)C(=O)O)ccc2C)S(=O)(=O)c2cnccc2O1` (stereo partly drawn) [Compound C2], for which the IC50 in data set [1] came out at 0.89 nM. This compound gave an EC50 with NRF2 of 777 nM. The “Cytotoxic concentration (concentration that does not affect cell viability)” value with HCE-T cells is 30.7* uM.

Broadly, the IC50 is the point on the concentration scale where inhibition reaches its midpoint. A higher IC50 goes with weaker potency in that assay. What is called EC50 is the concentration needed to bring the measured effect to its halfway point. Read a high EC50 as lower potency in that assay.
